In patent USRE40387E1, “Pharmaceutical compositions, dosage forms and methods for oral administration of epothilones” (Bristol-Myers Squibb Company, priority 2001, dated 2008):

Assays:
CYP2D6 = CYP2D6 (Homo sapiens, UniProt P10635); experiment: Inhibition of recombinant human CYP2D6 (deethylation of 3-cyano-7-ethoxycoumarin); type: in vitro ADME; conditions: recombinant human CYP isoform
Experimental: (§1) The ability of Compound (A) to inhibit the major human cytochrome P450s (CYPs) responsible for the metabolism of drugs was evaluated in vitro using recombinant human CYP isoforms. IC50 values for inhibition of deethylation of 3-cyano-7-ethoxycoumarin (CYP1A2, CYP2C9, CYP2C19, and CYP2D6) and for inhibition of dealkylation of benzoyl-resorufin (CYP3A4) were determined.

[1] = system: Caco-2 cell culture system; experiment: Caco-2 cell permeability
Experimental: The Pc of some model compounds, for which the bioavailability in humans is known, was also determined in the same experiment.

dog liver microsomes = experiment: Oxidative metabolism in dog liver microsomes; type: in vitro ADME; conditions: 40 :M, NADPH
Experimental: (§2) Upon incubation of Compound (A) (40 :M) with mouse, rat, dog, and human liver microsomes fortified with nicotinamide adenine dinucleotide phosphate (NADPH), the rate of oxidative metabolism of Compound (A) was 2.1, 0.7, 1.2 and 1.3 nmol/min/mg protein, respectively. Moreover, the metabolite distribution was similar among all species (metabolite masses included several […] and M−2 compounds). Qualitatively, there appeared to be similar production of metabolites of Compound (A) after incubation with rat or human hepatocytes compared to microsomal incubations. Products similar to those arising from the chemical degradation of Compound (A) appeared to be the major products in the hepatocyte incubations.

CYP1A2 = biological target: T1, CYP1A2 (Homo sapiens, UniProt P05177); experiment: Inhibition of recombinant human CYP1A2 (deethylation of 3-cyano-7-ethoxycoumarin); type: in vitro ADME; conditions: recombinant human CYP isoform
T1 sequence (P05177 1-516): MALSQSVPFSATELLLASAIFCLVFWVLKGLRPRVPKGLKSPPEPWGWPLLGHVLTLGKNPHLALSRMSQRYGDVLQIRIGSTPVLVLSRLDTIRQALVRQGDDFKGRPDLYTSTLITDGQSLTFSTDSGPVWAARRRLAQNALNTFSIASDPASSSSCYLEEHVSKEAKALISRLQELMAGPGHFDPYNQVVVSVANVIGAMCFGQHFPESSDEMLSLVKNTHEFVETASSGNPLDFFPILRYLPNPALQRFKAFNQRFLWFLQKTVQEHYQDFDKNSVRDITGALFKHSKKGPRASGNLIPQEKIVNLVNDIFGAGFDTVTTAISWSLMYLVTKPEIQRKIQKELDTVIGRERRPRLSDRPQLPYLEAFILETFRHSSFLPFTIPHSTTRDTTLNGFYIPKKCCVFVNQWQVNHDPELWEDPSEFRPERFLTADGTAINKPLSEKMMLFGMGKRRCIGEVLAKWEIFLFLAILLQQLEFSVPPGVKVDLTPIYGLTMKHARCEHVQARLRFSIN
Experimental: as §1

CYP2C19 = CYP2C19 (Homo sapiens, UniProt P33261); experiment: Inhibition of recombinant human CYP2C19 (deethylation of 3-cyano-7-ethoxycoumarin); type: in vitro ADME; conditions: recombinant human CYP isoform
Experimental: as §1

[2] = Stability of liquid formulation in 80:20 propylene glycol:ethanol; type: physicochemical; conditions: for can be stored for up to: 2.5 mg/mL to 12.5 mg/mL in 80:20 propylene glycol:ethanol
Experimental: The stability of compound (A) in 80:20 propylene glycol:ethanol was evaluated by reconstituting 25 mg Compound (A) with 80:20 propylene glycol:ethanol to provide a liquid oral dosage form at concentrations of 2.5 mg/mL to 12.5 mg/mL. The resulting liquid oral dosage form was then stored up to 20 hours at ambient temperature (20° C. to 25° C.) and room light and at refrigerated temperature (2° C. to 8° C.).
The change in total impurities was attributed to an increase of an oxazine impurity/degradant whose structure is depicted below: [drawing 10] Samples were analyzed using HPLC with a 75 mm×4.6 mm i.d., 3.5 :m particle sizeWaters Symmetry Shield RP8 column and with UV detection at 240 nm. 10 :L injection volumes were used, the column was maintained at ambient temperature and the flow rate was 1 mL/min. Analysis times were 1 hour and samples were eluted using gradient elution with a mobile phase of water (0.05% acetic acid) (mobil phase A) and a mobile phase of acetonitrile (0.05% acetic acid). The elution profile is described in the table below.

[3] = Pharmacokinetics in mice (IV and oral); type: in vivo, female CDF
Experimental: (§3) Plasma samples from pharmacokinetic/pharmacodynamic studies were analyzed for the concentration of Compound (A) using an LC/MS/MS (liquid chromatography/mass spectrometry/mass spectrometry) assay with a standard curve range of 5 to 20,000 ng/mL (10 to 40,000 nM) for studies in mice and 2 to 1000 ng/mL (4 to 2000 nM) for studies in rats and dogs. In pharmacodynamic studies, concentrations of Compound (A) were determined using the LC/MS/MS assay with a standard curve range of 5 to 20,000 ng/mL (10 to 40,000 nM) in mouse plasma. The LC/MS/MS assay was also used to determine the concentrations of Compound (B), a degradation product of Compound (A) formed in the stock/dosing solution or in vivo, in rat and dog plasma. The structure of Compound (B) is: [drawing 9]
Compound (A) was administered intravenously (5 mg/kg) and orally (48 mg/kg) to female CDF, mice. For the IV route, Compound (A) was dissolved in 20% ethanol solution and was given as a bolus dose. For the oral route, solutions of Compound (A) were prepared as a 3:7 mixture of ethanol:phosphate buffered saline (0.25 M, pH 8.0) and administered by gavage. Plasma samples for determinating concentrations of Compound (A) were taken from 3 separate mice at 5, 15, and 45 min, and 2, 4, and 6 h after the IV dose, and at 15 and 45 min, and 2, 4, and 6 h after the oral dose.

mouse liver microsomes = experiment: Oxidative metabolism in mouse liver microsomes; type: in vitro ADME; conditions: 40 :M, NADPH
Experimental: as §2

[4] = Pharmacokinetics in dogs, 10 min IV infusion; type: in vivo, male beagle dogs
Experimental: as §3
Male beagle dogs (n=3) were administered a 10 min IV infusion of 0.5 mg/kg of Compound (A) (given as a 10% ethanol solution). Plasma samples were taken over a period of 32 h after dose to determine the plasma concentrations of Compound (A). […] The T-HALF was estimated to be approximately 24 h.

rat liver microsomes = experiment: Oxidative metabolism in rat liver microsomes; type: in vitro ADME; conditions: 40 :M, NADPH
Experimental: as §2

Chain of CYP2D6 (P10635 whole entry, canonical isoform): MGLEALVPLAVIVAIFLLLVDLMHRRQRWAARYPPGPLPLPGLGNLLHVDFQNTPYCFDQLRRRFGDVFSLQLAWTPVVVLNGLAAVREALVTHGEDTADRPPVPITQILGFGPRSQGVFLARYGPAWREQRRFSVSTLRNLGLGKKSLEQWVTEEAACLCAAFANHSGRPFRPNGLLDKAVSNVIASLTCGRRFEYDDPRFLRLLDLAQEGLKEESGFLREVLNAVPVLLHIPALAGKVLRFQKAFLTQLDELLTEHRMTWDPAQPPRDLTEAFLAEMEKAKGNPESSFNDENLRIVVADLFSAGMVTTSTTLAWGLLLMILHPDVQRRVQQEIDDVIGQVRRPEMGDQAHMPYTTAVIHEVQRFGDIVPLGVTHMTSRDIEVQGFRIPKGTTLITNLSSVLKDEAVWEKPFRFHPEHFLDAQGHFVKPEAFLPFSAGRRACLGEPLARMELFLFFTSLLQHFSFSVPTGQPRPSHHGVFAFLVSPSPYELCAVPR
Chain of CYP2C19 (P33261 whole entry, canonical isoform): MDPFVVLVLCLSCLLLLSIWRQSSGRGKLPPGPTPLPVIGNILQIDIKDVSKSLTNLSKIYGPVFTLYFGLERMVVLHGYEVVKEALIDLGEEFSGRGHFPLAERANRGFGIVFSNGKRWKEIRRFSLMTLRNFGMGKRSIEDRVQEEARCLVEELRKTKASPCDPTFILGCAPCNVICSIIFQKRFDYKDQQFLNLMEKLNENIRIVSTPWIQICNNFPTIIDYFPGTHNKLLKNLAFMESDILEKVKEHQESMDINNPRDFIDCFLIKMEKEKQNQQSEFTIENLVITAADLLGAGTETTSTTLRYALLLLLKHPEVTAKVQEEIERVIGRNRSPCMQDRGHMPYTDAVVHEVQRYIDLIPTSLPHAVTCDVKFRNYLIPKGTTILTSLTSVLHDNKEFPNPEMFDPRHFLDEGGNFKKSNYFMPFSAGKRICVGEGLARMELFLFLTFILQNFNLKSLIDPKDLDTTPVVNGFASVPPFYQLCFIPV

## C/C(=C\c1csc(C)n1)[C@@H]1C[C@@H]2O[C@]2(C)CCC[C@H](C)[C@H](O)[C@@H](C)C(=O)C(C)(C)[C@@H](O)CC(=O)N1 (relative stereo) [Compound (A), [1S-[1R*,3R*(E),7R*,10S*,11R*,12R*,16S*]]-7,11-dihydroxy 8,8,10,12,16-pentamethyl-3-[1-methyl-2-(2-methyl-4-thiazolyl)ethenyl-4-aza-17-oxobicyclo[14.1.0]heptadecane-5,9-dione]
CYP2D6
  inhibition of CYP2D6: did not inhibit
[1]; Caco-2, 10 pM (Ca 5 pg/mL)
  permeability coefficient (Pc): 9.4 ×10⁻⁶ cm/s
[1]; Caco-2, 30 pM (Ca 15 pg/mL)
  permeability coefficient (Pc): 10.5 ×10⁻⁶ cm/s
[1]; Caco-2, 100 pM (Ca 50 pg/mL)
  permeability coefficient (Pc): 12.8 ×10⁻⁶ cm/s
Dog liver microsomes
  rate of oxidative metabolism: 1.2 nmol/min/mg protein
CYP1A2
  inhibition of CYP1A2: did not inhibit
CYP2C19
  inhibition of CYP2C19: did not inhibit
[2]; ambient temperature
  can be stored for up to: up to 6 hours
[2]; refrigerated temperature
  can be stored for up to: up to 20 hours
[2]; ambient temperature (20° C. to 25° C.) and room light, 20 hours
  total impurities/degradants and potency: increase in total impurities/degradants and a decrease in potency
[2]; refrigerated temperature (2° C. to 8° C.), 20 hours
  total impurities/degradants: slight increase in total impurities/degradants
[2]; up to 20 hours, either storage condition
  appearance of the liquid oral dosage form: No changes from initial
[3]; IV 5 mg/kg
  steady-state volume of distribution (VSS): 6.3 L/kg
  terminal elimination half-life (T-HALF): approximately 3 h
[3]; IV 5 mg/kg, liver blood flow 90 mL/min/kg
  CLT as percent of liver blood flow: 76%
[3]; IV bolus 5 mg/kg
  systemic clearance or total body clearance (CLT): 68 mL/min/kg
[3]; oral 48 mg/kg vs IV 5 mg/kg
  absolute oral bioavailability: 31%
[3]; oral 48 mg/kg, ethanol:phosphate buffered saline 3:7
  peak plasma concentration (CMAX): 5983 ng/mL
Mouse liver microsomes
  rate of oxidative metabolism: 2.1 nmol/min/mg protein
[4]; 10 min IV infusion 0.5 mg/kg
  CLT (mean): 17.3 mL/min/kg
[4]; IV 0.5 mg/kg
  T-HALF: approximately 24 h
  mean VSS: 25.2 L/kg
[4]; IV 0.5 mg/kg, liver blood flow 30.9 mL/min/kg
  CLT as percent of liver blood flow: about 56%
[4]; preliminary IV pharmacokinetic study, 0.5 mg/kg
  AUC, mean (SD): 483 (34) h.ng/mL
Rat liver microsomes
  rate of oxidative metabolism: 0.7 nmol/min/mg protein
